# Results: paper PMC10600239, “Selective MCL-1 inhibitor ABBV-467 is efficacious in tumor models but is associated with cardiac troponin increases in patients” (Communications Medicine, 2023)
# Several values for one entry are separate records, joined by “and”; a condition that tells them apart may be missing. Equal values may be shown once.
# System: OPM-2 xenografts
# Experiment: OPM-2 xenograft efficacy (tumor volume, body weight)
# Assay type: in vivo, mouse
# Settings: for Tumor Volume (mm³) Day 27, Mean: group mean; for Tumor Volume (mm³) Day 27, Median: group median; for Tumor Volume (mm³) Day 27 / Tumor Volume (mm³) Day 30 / Tumor Volume (mm³) Day 34: individual animals; for Tumor Volume (mm³) Day 23 (individual animals) / Tumor Volume Day 23, Mean / Tumor Volume Day 23, Median / % T/C (mean) / % T/C (median): Day 23
# Procedure: All animal studies were conducted in accordance with the guidelines approved by the Institutional Animal Care and Use Committees of AbbVie. The research protocol was approved by In Vivo Pharmacology at AbbVie prior to study initiation but was not publicly registered or disclosed. Female C.B-17 SCID-beige mice (AMO-1, OPM-2, NCI-H929, and OCI-AML2 xenografts) and female NSG mice (MV4-11-Red.Fluc systemic) were purchased from Charles River Laboratories (Wilmington, MA). Animals were housed in a light cycle-controlled room with HEPA filtration at 22 °C. Animals had nesting and climbing cage topper as the primary environmental enrichment. Animals were inoculated subcutaneously in the right flank with 5 × 10^6 (AMO-1, OPM-2, NCI-H929, and OCI-AML2) or intravenous (IV) with 5 × 10^6 (MV4-11-Red.Fluc). The inoculation volume (0.2 mL) comprised a 50:50 mixture of cells in growth media and Matrigel (BD Biosciences) for subcutaneous injections and 100% phosphate-buffered saline for IV administration. All cell lines used in this publication were authenticated using IDEXX for STR profiling as well as their IMPACT and human IMPACT panels for pathogen screening. Electronic calipers were used to measure the length and width of each tumor 2 to 3 times per week. Tumor volume was estimated by applying the following equation: volume = length × width^2/2. All groups remained blinded during measurements and dosing; only veterinary staff were aware of group identity. When tumors reached approximately 200 mm^3, mice were randomized by match and distributed into treatment and control groups. All xenograft trials were conducted using 5 to 10 mice per group, and all mice were ear tagged and monitored individually throughout the studies. Any animal with a tumor above 2000 mm^3 or 15% loss in body weight was euthanized and removed from the study. Tumor burden in the systemic MV4-11-Red.Fluc experiment was measured using an IVIS® spectrum from PerkinElmer by taking the total photon flux of the entire dorsal side of an individual mouse. Ten minutes prior to imaging, animals received intraperitoneally 0.2 mL of a 15-mg/mL solution of D-Luciferin (PerkinElmer, Catalog #122799) formulated in 100% phosphate-buffered saline. Animals were anesthetized using 3.5% isoflurane and maintained using 2%. Six days after inoculation, animals were imaged and randomized into vehicle and treatment groups at a total flux of ~1 × 10^8. A background control mouse that was tumor naive but received D-Luciferin was placed in the upper left corner of each image. The total flux from this animal was subtracted from the total flux of each animal present in the image.
# For in vivo studies, maximal tumor growth inhibition (TGI) was calculated as the greatest treatment response using the following equation: Maximal TGI = (1 − mean tumor volume of the treated group/mean tumor volume of the vehicle control group) × 100. The tumor growth delay (TGD) percentage was determined as the percentage increase of the median time period for the treatment group to reach an arbitrary tumor volume of 1000 mm^3 relative to the vehicle control group. […] A power analysis was conducted using historical data to determine the number of animals required to yield significance of 0.05 at a 30% difference. There were no animals excluded. Data from experiments in vivo were analyzed using the student’s t-test for TGI values and the Mann–Whitney U test for TGD using Excel and GraphPad Prism. Fisher’s exact test was used to probe significance of differences in response frequency.
# [1] = 6.25 mg/kg q7dx3 IV, mean(T)/mean(C)
# [2] = 6.25 mg/kg q7dx3 IV, median(T)/median(C)
# [3] = 6.25 mg/kg q7dx3 IV, SCID-beige mice
# [4] = 6.25 mg/kg q7dx3 IV, OPM-2 (DSMZ) xenograft, SCID-beige mice
# [5] = 25 mg/kg q7dx3 IV, mean(T)/mean(C)
# [6] = 25 mg/kg q7dx3 IV, median(T)/median(C)
# [7] = 25 mg/kg q7dx3 IV, SCID-beige mice
# [8] = 25 mg/kg q7dx3 IV, OPM-2 (DSMZ) xenograft, SCID-beige mice
# [9] = OPM-2 (DSMZ) xenograft, SCID-beige mice, 6.25 mg/kg q7dx3 IV
# [10] = OPM-2 (DSMZ) xenograft, SCID-beige mice, 25 mg/kg q7dx3 IV
structure (smiles),measurement,setting,value
Cc1c(Cl)c2c(Cl)c(C)c1-c1c(-c3ccc(F)cc3)sc3ncnc(c13)O[C@@H](C(=O)O)Cc1cc(ccc1OCc1ccnc(-c3ccc(OC[C@H]4COCCO4)cc3)n1)OC[C@@H](CN1CCN(C)CC1)O2 [Compound A-1747745],% Mortality,"6.25 mg/kg IV q7dx3, clinical observation, SCID-beige mice, OPM-2 (DSMZ) xenograft",100.00%
same,"Tumor Volume (mm³) Day 27, Mean",6.25 mg/kg q7dx3 IV,468.28 mm³
same,"Tumor Volume (mm³) Day 27, Median",6.25 mg/kg q7dx3 IV,424.66 mm³
same,Tumor Volume (mm³) Day 27,6.25 mg/kg q7dx3 IV,369 mm³ and 671 mm³ and 322 mm³ and 348 mm³ and 352 mm³ and 673 mm³ and 481 mm³ and 531 mm³
same,"Body Weight Day 27, % T/C (mean)",[1],97.79%
same,"Tumor Volume Day 27, % T/C (mean)",[1],49.20%
same,"Body Weight Day 27, % T/C (median)",[2],97.79%
same,"Tumor Volume Day 27, % T/C (median)",[2],41.20%
same,"% T/C (mean), Tumor Volume Day 30",6.25 mg/kg q7dx3 IV,42.91%
same,"% T/C (median), Tumor Volume Day 30",6.25 mg/kg q7dx3 IV,42.72%
same,"Tumor Volume Day 30, Mean",6.25 mg/kg q7dx3 IV,634.52 mm³
same,"Tumor Volume Day 30, Median",6.25 mg/kg q7dx3 IV,618.80 mm³
same,Tumor Volume (mm³) Day 30,[3],375 mm³ and 897 mm³ and 567 mm³ and 528 mm³ and 560 mm³ and 806 mm³ and 673 mm³ and 670 mm³
same,"Tumor Volume Day 34, Mean",6.25 mg/kg q7dx3 IV,930.42 mm³
same,"Tumor Volume Day 34, Median",6.25 mg/kg q7dx3 IV,940.62 mm³
same,Tumor Volume (mm³) Day 34,[3],591 mm³ and 1061 mm³ and 690 mm³ and 703 mm³ and 1071 mm³ and 821 mm³ and 1142 mm³ and 1365 mm³
same,Tumor Volume (mm³) Day 23 (individual animals),[4],264 mm³ and 376 mm³ and 277 mm³ (2×) and 196 mm³ and 349 mm³ and 392 mm³ and 253 mm³
same,"Tumor Volume Day 23, Mean",[4],298.00 mm³
same,"Tumor Volume Day 23, Median",[4],276.63 mm³
same,% T/C (mean),"6.25 mg/kg q7dx3 IV, OPM-2 (DSMZ) xenograft, mean(T)/mean(C)",68.08%
same,% T/C (median),"6.25 mg/kg q7dx3 IV, OPM-2 (DSMZ) xenograft, median(T)/median(C)",67.57%
same,% Mortality,"25 mg/kg IV q7dx3, clinical observation, SCID-beige mice, OPM-2 (DSMZ) xenograft",0.00%
same,% BW Loss,"25 mg/kg IV q7dx3, day 27, clinical observation",-2% (day 27)
same,"Tumor Volume (mm³) Day 27, Mean",25 mg/kg q7dx3 IV,75.56 mm³
same,"Tumor Volume (mm³) Day 27, Median",25 mg/kg q7dx3 IV,79.55 mm³
same,Tumor Volume (mm³) Day 27,25 mg/kg q7dx3 IV,109 mm³ and 83 mm³ and 115 mm³ and 60 mm³ and 69 mm³ and 4 mm³ and 77 mm³ and 88 mm³
same,"Body Weight Day 27, % T/C (mean)",[5],101.28%
same,"Tumor Volume Day 27, % T/C (mean)",[5],7.94%
same,"Body Weight Day 27, % T/C (median)",[6],101.28%
same,"Tumor Volume Day 27, % T/C (median)",[6],7.72%
same,"% T/C (mean), Tumor Volume Day 30",25 mg/kg q7dx3 IV,2.78%
same,"% T/C (median), Tumor Volume Day 30",25 mg/kg q7dx3 IV,0.28%
same,"Tumor Volume Day 30, Mean",25 mg/kg q7dx3 IV,41.06 mm³
same,"Tumor Volume Day 30, Median",25 mg/kg q7dx3 IV,4.00 mm³
same,Tumor Volume (mm³) Day 30,[7],135 mm³ and 4 mm³ (5×) and 87 mm³ (2×)
same,"Tumor Volume Day 34, Mean",25 mg/kg q7dx3 IV,4.00 mm³
same,"Tumor Volume Day 34, Median",25 mg/kg q7dx3 IV,4.00 mm³
same,Tumor Volume (mm³) Day 34,[7],4 mm³
same,Tumor Volume (mm³) Day 23 (individual animals),[8],275 mm³ and 201 mm³ and 232 mm³ and 269 mm³ and 236 mm³ and 126 mm³ and 388 mm³ and 205 mm³
same,"Tumor Volume Day 23, Mean",[8],241.42 mm³
same,"Tumor Volume Day 23, Median",[8],233.81 mm³
same,% T/C (mean),"25 mg/kg q7dx3 IV, OPM-2 (DSMZ) xenograft, mean(T)/mean(C)",55.16%
same,% T/C (median),"25 mg/kg q7dx3 IV, OPM-2 (DSMZ) xenograft, median(T)/median(C)",57.11%
same,"Tumor Volume Day 20, Mean",[9],237.41 mm³
same,"Tumor Volume Day 20, Median",[9],234.06 mm³
same,"Tumor Volume (mm³) Day 20, individual animals","OPM-2 (DSMZ) xenograft, SCID-beige mice, 6.25 mg/kg q7dx3 IV, 6.25 mg/kg",217 mm³ and 238 mm³ and 188 mm³ and 184 mm³ and 290 mm³ and 300 mm³ and 252 mm³ and 230 mm³
same,"Tumor Volume Day 20, % T/C (mean)","OPM-2 (DSMZ) xenograft, SCID-beige mice, 6.25 mg/kg q7dx3 IV, mean(T)/mean(C)",99.97%
same,"Tumor Volume Day 20, % T/C (median)","OPM-2 (DSMZ) xenograft, SCID-beige mice, 6.25 mg/kg q7dx3 IV, median(T)/median(C)",101.50%
same,"Body Weight Day 21, % T/C (mean)","OPM-2 (DSMZ) xenograft, SCID-beige mice, 6.25 mg/kg q7dx3 IV, Day 21, mean(T)/mean(C)",100.00%
same,"Body Weight Day 21, % T/C (median)","OPM-2 (DSMZ) xenograft, SCID-beige mice, 6.25 mg/kg q7dx3 IV, Day 21, median(T)/median(C)",100.00%
same,"Tumor Volume Day 20, Mean",[10],237.54 mm³
same,"Tumor Volume Day 20, Median",[10],238.03 mm³
same,"Tumor Volume (mm³) Day 20, individual animals","OPM-2 (DSMZ) xenograft, SCID-beige mice, 25 mg/kg q7dx3 IV, 25 mg/kg",283 mm³ and 220 mm³ and 249 mm³ and 228 mm³ and 248 mm³ and 178 mm³ and 301 mm³ and 193 mm³
same,"Tumor Volume Day 20, % T/C (mean)","OPM-2 (DSMZ) xenograft, SCID-beige mice, 25 mg/kg q7dx3 IV, mean(T)/mean(C)",100.03%
same,"Tumor Volume Day 20, % T/C (median)","OPM-2 (DSMZ) xenograft, SCID-beige mice, 25 mg/kg q7dx3 IV, median(T)/median(C)",103.23%
